Laboratory results as given in patent US5208243A, “5-isoquinolinesulfonamides” (Adir et Compagnie, priority 1991, dated 1993).

Experiments:
guinea pig left auricle [1] = experiment: Veratridine intoxication of guinea pig left auricle; conditions: compound 10^-5 M
Description: a) Effect of the compounds of the invention on the intoxication of guinea pig left auricle.
The left auricles are removed from guinea pigs (350-450 g) anesthetized with sodium pentobarbital (30 mg/kg). The auricles are attached to a STATHAM tension sensor (UC2-GOULD) and the initial tension applied is 0.5 grams.
The auricles are electrically stimulated at 1 Hz by means of platinum electrodes. The intoxications are produced either by the addition of ouabain (10^-6 M) or by the addition of veratridine (10^-5 M). The test compounds are added 15 minutes before adding the toxic agent.

pig coronary artery = experiment: Vascular contraction of pig coronary artery induced by acetylcholine; conditions: Sus scrofa, 10^-5 M, preincubated 15 minutes
Description: (§1) Studies are carried out on rings, 3 mm in length, - or of coronary arteries from pigs anesthetized with nesdonal (8 mg/kg intravenously). The vascular rings are immersed in a normal physiological solution or in a physiological solution lacking calcium (+0.2 mM of the chelating agent EGTA), which is thermostatically regulated at 37° C. and aerated with a 95% O2 +5% CO2 mixture. The rings are linked to a STATHAM tension sensor (UC2-GOULD). The optimal tension for each vessel is applied and a stabilization period of 90 min is observed for the preparations. a) Antivasoconstrictive activity of the compounds of the invention in a physiological medium.

guinea pig left auricle [2] = experiment: Ouabain intoxication of guinea pig left auricle; conditions: compound 10^-5 M
rabbit aorta [3] = experiment: Vascular contraction of rabbit aorta induced by PDGF; set-up: species or system New Zealand rabbit; conditions: Oryctolagus cuniculus, 10^-5 M, preincubated 15 minutes
Description: as §1, with “- or of coronary arteries from pigs anesthetized with nesdonal (8 mg/kg intravenously).” left out

rabbit aortas = experiment: Contraction of rabbit aortas induced by noradrenaline in a medium without calcium; set-up: species or system New Zealand rabbit; conditions: Oryctolagus cuniculus, 0.5 h, rabbit aorta, incubated 30 minutes
Description: as §1, with “- or of coronary arteries from pigs anesthetized with nesdonal (8 mg/kg intravenously).” left out, “b)” for “a)”, “medium without calcium.” for “physiological medium.”

rabbit aorta [4] = experiment: Contraction of rabbit aorta induced by phorbol ester in a normal physiological medium; set-up: species or system New Zealand rabbit; conditions: Oryctolagus cuniculus, TPA 10^-5 M, read-out: IC50, phorbol ester stimulus
Description: as §1, with “- or of coronary arteries from pigs anesthetized with nesdonal (8 mg/kg intravenously).” left out

For `CN(CC1CCN(CCCOc2ccc(F)cc2)CC1)S(=O)(=O)c1cccc2cnccc12.Cl.Cl` [Example 17, N-Methyl-N-{[1-[3-(p-fluorophenoxy)propyl]-4-piperidyl]methyl}-5-isoquinolinesulfonamide dihydrochloride], the “% contraction” value (guinea pig left auricle [1]; 5 min) was 218.8 ± 50.8%, the “% contraction” value (guinea pig left auricle [1]; 15 min) was 181 ± 51% and the “Contracture (%)” value (guinea pig left auricle [1]; 15 min) was 0%. For the same compound, the “Contracture (%)” value (guinea pig left auricle [1]; 30 min) was 0%, the “% contraction” value (guinea pig left auricle [1]; 60 min) was 157.1 ± 42.6% and the “Contracture (%)” value (guinea pig left auricle [1]; 60 min) was 0%. The inhibition at 10 µM (pig coronary artery) was 64%, the “% contraction” value (guinea pig left auricle [2]; 10 min) was 201.5 ± 31.5% and the “Contracture (%)” value (guinea pig left auricle [2]; 15 min) was 0%. The “% contraction” value (guinea pig left auricle [2]; 30 min) was 186.5 ± 46%, the “Contracture (%)” value (guinea pig left auricle [2]; 30 min) was 2.5 ± 2.5% and the “% contraction” value (guinea pig left auricle [2]; 60 min) was 179 ± 44%. The “Contracture (%)” value (guinea pig left auricle [2]; 60 min) was 5 ± 3.3%, the inhibition at 10 µM (rabbit aorta [3]) was 30% and the inhibition at 1 µM (rabbit aortas; compound 10^-6 M) was 90%. For the same compound, the inhibition at 0.1 µM (rabbit aortas; compound 10^-7 M) was 40% and the IC50 (rabbit aorta [4]) was 21 µM.
